Reference: ChEMBL document CHEMBL1150734, “Marine soft corals of the genus Pseudopterogorgia: a resource for novel anti-inflammatory diterpenoids” (J Nat Prod, 1987)
Values after ≈ are worked out from the molar mass of the structure shown.

Legend:
Mus musculus [1] = assay: Antiinflammatory activity in mouse assessed as reduction PMA-induced ear edema at 50 ug/ear administered relative to control; format: functional; design: scale not given: the % may be the effect or the level left; details: at 50 µg/ear
[2] = Inhibition of nuclear division of fertilized sea urchin egg; details: echinoidea
[3] = Inhibition of cell division of fertilized sea urchin egg; details: echinoidea
[4] = Inhibition of tubulin polymerization
Mus musculus [5] = assay: Antiinflammatory activity in mouse assessed as reduction PMA-induced ear edema; format: functional
Mus musculus [6] = assay: Antiinflammatory activity in ip dosed mouse assessed as inhibition of writhing; format: functional
Mus musculus [7] = assay: Antiinflammatory activity in ip dosed mouse assessed as reduction PMA-induced ear edema; format: functional

Row | Structure (SMILES) | Activity (Mus musculus [1]) | ED50 (Mus musculus [6]) | ED50 (Mus musculus [7]) | further results
1 | CC(=O)O[C@H]1[C@H](O)[C@H](Oc2c(O)c(C)cc3c2[C@@H](C)CC[C@@H]3[C@@H](C)CCC=C(C)C)OC[C@H]1O | 75% |  |  | 
2 | CC(=O)O[C@@H]1CO[C@@H](Oc2c(O)c(C)cc3c2[C@@H](C)CC[C@@H]3[C@@H](C)CCC=C(C)C)[C@@H](O)[C@@H]1O | 75% |  |  | 
3 | C=C(C)[C@H]1C2=CC(C(=O)OC)=C(C[C@H](C(C)C)[C@H]3O[C@H]3C3=C[C@H]1OC3=O)O2 [PSEUDOPTEROLIDE] | 83% |  |  | Activity [2]: Non-toxic; Activity [3]: Non-toxic; ED50 [4]: 8 µg/mL (≈ 21.5 µM)
4 | CC(C)=C[C@H]1C[C@H](C)[C@H]2CC[C@H](C)c3c(O[C@@H]4OC[C@@H](O)[C@H](O)[C@H]4O)c(O)c(C)c1c32 [PSEUDOPTEROSIN A] | 75% | 4 mg/kg | 10 mg/kg | ED50 (Mus musculus [5]): 8.3 µg
5 | CC(=O)O[C@H]1[C@H](Oc2c(O)c(C)c3c4c2[C@@H](C)CC[C@@H]4[C@@H](C)C[C@@H]3C=C(C)C)OC[C@@H](O)[C@@H]1O [PSEUDOPTEROSIN B] | 75% | 4 mg/kg | 10 mg/kg | 
6 | CC(=O)O[C@@H]1[C@@H](O)[C@H](Oc2c(O)c(C)c3c4c2[C@@H](C)CC[C@@H]4[C@@H](C)C[C@@H]3C=C(C)C)OC[C@H]1O [PSEUDOPTEROSIN C] | 75% | 4 mg/kg | 10 mg/kg | 
7 | CC(=O)O[C@@H]1CO[C@@H](Oc2c(O)c(C)c3c4c2[C@@H](C)CC[C@@H]4[C@@H](C)C[C@@H]3C=C(C)C)[C@H](O)[C@H]1O [PSEUDOPTEROSIN D] | 75% | 4 mg/kg | 10 mg/kg | 
8 | CC(C)=CCC[C@H](C)[C@H]1CC[C@H](C)c2c1cc(C)c(O)c2O[C@@H]1OC[C@@H](O)[C@@H](O)[C@@H]1O [SECO-PSEUDOPTEROSIN A] | 75% |  |  | 
9 | CC(=O)O[C@@H]1[C@H](Oc2c(O)c(C)cc3c2[C@@H](C)CC[C@@H]3[C@@H](C)CCC=C(C)C)OC[C@@H](O)[C@H]1O [SECO-PSEUDOPTEROSIN B] | 75% |  |  | 
